# Data from ChEMBL document CHEMBL4346683 (Eur J Med Chem, 2019).
# Activity calls are given as the source filed them. The rule behind the calls is not given here.
# Tests used:
# Escherichia coli = experiment: Antibacterial activity against Escherichia coli ATCC 25922 assessed as inhibition of bacterial growth incubated for 24 hrs by TTC double broth dilution method; format: functional; details: ATCC 25922, 24 h
# Pseudomonas aeruginosa = experiment: Antibacterial activity against Pseudomonas aeruginosa ATCC 27853 assessed as inhibition of bacterial growth incubated for 24 hrs by TTC double broth dilution method; format: functional; details: ATCC 27853, 24 h
# Bacillus subtilis = experiment: Antibacterial activity against Bacillus subtilis ATCC 530 assessed as inhibition of bacterial growth incubated for 24 hrs by TTC double broth dilution method; format: functional; details: ATCC 530, 24 h
# Staphylococcus aureus = experiment: Antibacterial activity against Staphylococcus aureus ATCC 25923 assessed as inhibition of bacterial growth incubated for 24 hrs by TTC double broth dilution method; format: functional; details: ATCC 25923, 24 h
# [1] = biological target: T1, 3-oxoacyl-[acyl-carrier-protein] synthase 3 (Escherichia coli, UniProt C3TDZ2); experiment: Inhibition of Escherichia coli FabH in presence of radiolabelled substrates and acetyl-coA by enzyme coupled FabD/FabH assay system
# T1 sequence (C3TDZ2 whole entry): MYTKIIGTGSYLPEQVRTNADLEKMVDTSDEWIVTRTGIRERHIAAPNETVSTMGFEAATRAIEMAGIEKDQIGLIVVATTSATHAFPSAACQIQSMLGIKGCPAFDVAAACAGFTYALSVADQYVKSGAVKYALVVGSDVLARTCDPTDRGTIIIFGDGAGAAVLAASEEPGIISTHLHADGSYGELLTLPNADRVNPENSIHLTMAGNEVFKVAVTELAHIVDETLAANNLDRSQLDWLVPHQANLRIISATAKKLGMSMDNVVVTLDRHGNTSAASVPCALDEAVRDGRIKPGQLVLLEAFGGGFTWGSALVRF
# [2] = Cytotoxicity against human 293T cells assessed as reduction in cell viability incubated for 24 hrs by MTT assay; format: cell-based; details: HEK-293T cells
# [3] = Induction of hemolysis in human erythrocytes assessed as hemoglobin release incubated for 3 hrs by spectrophotometric analysis; format: cell-based; details: erythrocyte
# [4] = Inhibition of Enterococcus faecalis FabH
# [5] = Inhibition of Streptococcus pyogenes FabH
# [6] = tested on: Xanthomonas oryzae pv. oryzae; experiment: Antibacterial activity against wild type Xanthomonas oryzae pv. oryzae KACC10331 expressing FabH assessed as reduction in bacterial growth; format: functional
# [7] = tested on: Xanthomonas oryzae pv. oryzae; experiment: Antibacterial activity against wild type Xanthomonas oryzae pv. oryzae KACC10331 expressing FabH assessed as reduction in bacterial growth at 5 ug/ml; format: functional, organism-based
Structure (SMILES),MIC (Escherichia coli) [µg/mL],MIC (Pseudomonas aeruginosa) [µg/mL],MIC (Bacillus subtilis) [µg/mL],MIC (Staphylococcus aureus) [µg/mL],IC50 [1] [µM],CC50 at 24 h [2] [µM],LC30 [3] [µg/mL],IC50 [4] [µM],IC50 [5] [µM],MIC [6] [µg/mL],inhibition [7]
Cc1ccc(C(=O)n2c(-c3cn(-c4ccccc4)nc3-c3ccc(F)cc3)nc3ccccc32)cc1,62.5,> 62.5,0.98,> 62.5,30.3,178,> 10000,,,,
O=C(Nc1cccc(O)c1C(=O)O)c1ccc(-c2ccccc2)c(Oc2ccccc2)c1,,,,,,,,0.004,0.004,,
O=C(c1ccccc1)n1c(-c2cn(-c3ccccc3)nc2-c2ccc(F)cc2)nc2ccccc21,62.5,62.5,7.8,> 62.5,22.1,180,> 10000,,,,
Cc1cccc(C(=O)n2c(-c3cn(-c4ccccc4)nc3-c3ccc(F)cc3)nc3ccccc32)c1,62.5,31.2,31.2,62.5,34.1,148,> 10000,,,,
Cc1ccc(-c2nn(-c3ccccc3)cc2-c2nc3ccccc3n2C(=O)c2cncc(C)c2)cc1,62.5,62.5,7.8,62.5,9.56,155,> 10000,,,,
O=C(c1cccnc1)n1c(-c2cn(-c3ccccc3)nc2-c2ccc(F)cc2)nc2ccccc21,0.98,0.49,0.98,0.98,1.22,216,> 10000,,,0.49,Active
Cc1ccc(-c2nn(-c3ccccc3)cc2-c2nc3ccccc3n2C(=O)c2cccnc2)cc1,62.5,62.5,0.98,31.2,18.3,189,> 10000,,,,
O=C(c1ccccc1)n1c(-c2cn(-c3ccccc3)nc2-c2ccc(C(F)(F)F)cc2)nc2ccccc21,62.5,62.5,15.6,> 62.5,25.7,168,> 10000,,,,
Cc1ccc(-c2nn(-c3ccccc3)cc2-c2nc3ccccc3n2C(=O)c2ccc(C)nc2)cc1,62.5,62.5,0.98,62.5,16.9,145,> 10000,,,15.6,
O=C(c1ccc(Cl)cc1)n1c(-c2cn(-c3ccccc3)nc2-c2ccc(F)cc2)nc2ccccc21,62.5,> 62.5,62.5,> 62.5,36.1,179,> 10000,,,,
Cc1ccc(-c2nn(-c3ccccc3)cc2-c2nc3ccccc3n2C(=O)c2ccncc2)cc1,> 62.5,62.5,31.2,62.5,30.3,154,> 10000,,,,
Cc1ccc(-c2nn(-c3ccccc3)cc2-c2nc3ccccc3n2C(=O)c2ccccc2)cc1,> 62.5,62.5,31.2,> 62.5,28.2,204,> 10000,,,,
O=C(c1ccncc1)n1c(-c2cn(-c3ccccc3)nc2-c2ccc(F)cc2)nc2ccccc21,> 62.5,62.5,31.2,62.5,33.9,151,> 10000,,,,
Cc1ccc(-c2nn(-c3ccccc3)cc2-c2nc3ccccc3n2C(=O)c2ccc(Cl)cc2)cc1,62.5,> 62.5,62.5,> 62.5,38.2,216,> 10000,,,,
O=C(c1ccncc1)n1c(-c2cn(-c3ccccc3)nc2-c2ccc(C(F)(F)F)cc2)nc2ccccc21,> 62.5,62.5,7.8,62.5,32.7,135,> 10000,,,,
